According to the supplement of paper PMC10721915:
± gives the standard deviation of the averaged measurements.

Key:
Test in all cases: relative cell growth vs untreated control (GI, NCI-DTP normalisation with time-zero) (fraction of control growth); higher = more growth / less inhibition
Details in all cases: treatment time: 120 h
A204 = tested on: A204
Procedure: (§1)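 Cancer cell lines in 96-well plates were treated 48 h after seeding with M4076 (ATM inhibitor) and berzosertib (ATR inhibitor), alone or mixed, in 4-fold dilutions for 120 h. Protein was read by sulforhodamine B staining, background-subtracted and normalised NCI-DTP style to untreated control growth. Rows with one concentration equal to 0 are monotherapy.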

BXPC3 = tested on: BXPC3
Procedure: as §1

HL60 = tested on: HL60
Procedure: as §1

HT1080 = tested on: HT1080
Procedure: as §1

HT29 = tested on: HT29
Procedure: as §1

IGROV1 = tested on: IGROV1
Procedure: as §1

LOVO = tested on: LOVO
Procedure: as §1

SAOS2 = tested on: SAOS2
Procedure: as §1

SW620 = tested on: SW620
Procedure: as §1

U87MG = tested on: U87MG
Procedure: as §1

COc1cc2ncc3c(c2cc1-c1cn(C)nc1C)n(-c1c(F)cncc1OC)c(=O)n3C [M4076] + CNCc1ccc(-c2cc(-c3nc(-c4ccc(S(=O)(=O)C(C)C)cc4)cnc3N)on2)cc1 [berzosertib]
relative cell growth
Details	A204	BXPC3	HL60	HT29	HT1080	IGROV1	LOVO	SAOS2	SW620	U87MG
concentration of first compound 0.0195 µM, concentration of partner 0 M	1.25 ± 0.11	1.17 ± 0.22	1.14 ± 0.11	1.3 ± 0.27	1.1 ± 0.02	1.27 ± 0.21	1.25 ± 0.26	1.16 ± 0.15	1.08 ± 0.14	1.1 ± 0.11
concentration of first compound 0.0195 µM, concentration of partner 0.2 µM	0.675	0.548	1.06	0.0171	0.762	0.543	0.105	0.735	0.95	0.891
concentration of first compound 0.0781 µM, concentration of partner 0 M	1.16 ± 0.1	1.25 ± 0.24	1.13 ± 0.1	1.23 ± 0.26	0.574 ± 0.01	1.36 ± 0.22	1.21 ± 0.25	1.14 ± 0.15	1.09 ± 0.14	1.12 ± 0.11
concentration of first compound 0.0781 µM, concentration of partner 0.2 µM	0.9	0.643	1.12	0.0537	0.753	0.527	0.209	0.657	0.848	0.839
concentration of first compound 0.313 µM, concentration of partner 0 M	1.1 ± 0.098	1.17 ± 0.22	1.03 ± 0.096	1.19 ± 0.25	0.481 ± 0.0086	1.18 ± 0.19	1.09 ± 0.23	1.05 ± 0.14	1.01 ± 0.13	1.09 ± 0.11
concentration of first compound 0.313 µM, concentration of partner 0.2 µM	0.654	0.481	0.788	0.00799	-0.0371	0.376	0.0984	0.319	0.449	0.682
concentration of first compound 1 µM, concentration of partner 0 M	0.83	0.952	0.862	0.888	0.54	0.9	0.971	0.782	0.958	0.966
concentration of first compound 1 µM, concentration of partner 0.0195 µM	0.965	0.987	0.88	0.81	0.752	0.964	0.763	0.871	0.922	0.944
concentration of first compound 1 µM, concentration of partner 0.0781 µM	0.785	0.78	0.707	0.27	0.155	0.604	0.508	0.482	0.646	0.82
concentration of first compound 1 µM, concentration of partner 0.313 µM	0.205	0.015	0.0883	-0.0312	-0.168	0.0905	-0.0419	0.119	0.168	0.343
concentration of first compound 1 µM, concentration of partner 1.25 µM	-0.0708	-0.096	0.00814	-0.0506	-0.178	-0.0208	-0.0608	-0.0926	0.0263	0.0996
concentration of first compound 1 µM, concentration of partner 5 µM	-0.102	-0.0967	-0.0212	-0.0437	-0.234	-0.0274	-0.0633	-0.1	-0.014	0.134
concentration of first compound 1.25 µM, concentration of partner 0 M	0.914 ± 0.081	1.08 ± 0.21	0.958 ± 0.089	1.11 ± 0.23	0.332 ± 0.0059	1.02 ± 0.17	1.1 ± 0.23	0.871 ± 0.11	0.96 ± 0.12	1.01 ± 0.1
concentration of first compound 1.25 µM, concentration of partner 0.2 µM	0.685	0.321	0.344	0.00308	-0.114	0.327	-0.000928	0.146	0.293	0.505
concentration of first compound 5 µM, concentration of partner 0 M	0.524 ± 0.047	0.894 ± 0.17	0.746 ± 0.07	0.933 ± 0.2	0.478 ± 0.0086	0.48 ± 0.079	0.981 ± 0.2	0.652 ± 0.084	0.916 ± 0.12	0.853 ± 0.085
concentration of first compound 5 µM, concentration of partner 0.2 µM	0.337	0.228	0.207	-0.00294	-0.101	0.0986	-0.0311	0.113	0.269	0.381

CNCc1ccc(-c2cc(-c3nc(-c4ccc(S(=O)(=O)C(C)C)cc4)cnc3N)on2)cc1 [berzosertib] + COc1cc2ncc3c(c2cc1-c1cn(C)nc1C)n(-c1c(F)cncc1OC)c(=O)n3C [M4076]
relative cell growth, concentration of partner 0 M
Details	A204	BXPC3	HL60	HT29	HT1080	IGROV1	LOVO	SAOS2	SW620	U87MG
concentration of first compound 0.0195 µM	1.15 ± 0.11	1.18 ± 0.22	1.14 ± 0.12	1.22 ± 0.25	2.08 ± 0.29	1.15 ± 0.21	1.07 ± 0.22	1.16 ± 0.16	1.1 ± 0.15	1.09 ± 0.12
concentration of first compound 0.0781 µM	1.06 ± 0.1	1.14 ± 0.21	1.1 ± 0.12	0.613 ± 0.13	2.13 ± 0.3	1.01 ± 0.18	0.826 ± 0.17	1.11 ± 0.15	1.07 ± 0.15	1.07 ± 0.12
concentration of first compound 0.2 µM	0.623	0.588	0.809	0.113	0.626	0.468	0.211	0.645	0.795	0.8
concentration of first compound 0.313 µM	0.583 ± 0.056	0.34 ± 0.063	0.53 ± 0.056	-0.0285 ± 0.0059	0.0933 ± 0.013	0.129 ± 0.023	0.0258 ± 0.0054	0.559 ± 0.076	0.494 ± 0.067	0.677 ± 0.075
concentration of first compound 1.25 µM	-0.0148 ± 0.0015	-0.112 ± 0.021	0.0485 ± 0.0051	-0.0598 ± 0.012	-0.162 ± 0.023	-0.0355 ± 0.0062	-0.0498 ± 0.011	0.0446 ± 0.006	0.087 ± 0.012	0.185 ± 0.021
concentration of first compound 5 µM	-0.0897 ± 0.0087	-0.0824 ± 0.015	-0.0133 ± 0.0014	-0.0555 ± 0.011	-0.228 ± 0.032	-0.0657 ± 0.012	-0.0599 ± 0.013	-0.116 ± 0.016	-0.01 ± 0.0014	0.195 ± 0.022
